Consider 23 molecules from patent US9073902B2 (BioEnergenix, LLC, priority 2011, dated 2015).

T1 sequence (Q96RG2 999-1251 limits assumed): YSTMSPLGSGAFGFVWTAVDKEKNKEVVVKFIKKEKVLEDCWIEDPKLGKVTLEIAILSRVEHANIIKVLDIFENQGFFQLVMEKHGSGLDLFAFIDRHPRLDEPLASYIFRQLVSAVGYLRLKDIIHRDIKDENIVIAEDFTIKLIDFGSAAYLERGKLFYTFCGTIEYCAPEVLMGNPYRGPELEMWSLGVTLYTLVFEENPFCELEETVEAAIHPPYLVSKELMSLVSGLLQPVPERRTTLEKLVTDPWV

The experiment concerns the target T1, hPASK (Homo sapiens, UniProt Q96RG2).
T1 construct: IC50 Kinase Domain; purchased Invitrogen
Briefly: PAS Kinase FRET Assay (Biochemical Assay for hPASK Activity). The settings on record: TR-FRET (665 nm/615 nm), 2 hours at 25° C.; read-out: IC50 Kinase Domain. From the text: Biochemical Assay for hPASK Activity
The aim of the FRET assay is to determine the inhibition potential of test compounds on targeted kinase. This assay platform provides a homogenous screening method for measuring kinase activity by quantitating the amount of phospho-substrate in solution following a kinase reaction.
In the presence of kinase and ATP, the Ulight-peptide is phosphorylated and captured by an anti-phospho-substrate antibody, which brings the Eu chelate donor and Ulight acceptor dyes into close proximity. Upon excitation at 340 nm, the Eu chelate transfers its energy to the Ulight dye, resulting in a fluorescent light emission at 665 nm.
Titration of kinase at 1 mM ATP was achieved via the following protocol. After making serial three-fold dilutions of PASK (Invitrogen) in reaction buffer across the plate; 5 μl of kinase dilution and 5 μl substrate/ATP mix were added to the wells of the white Optiplate-384 (PerkinElmer). The contents of the plate were and incubated at RT for 1 h. The reaction was stopped by adding 5 μl of stop solution to each test well followed by mixing and incubation at RT for 10 minutes. 5 μl of detection mix (detection antibody diluted in detection buffer) was added; the contents of the plate were mixed and then incubated in the dark for 1 hour at RT. The signal was recorded at TR-FRET mode (665 nm/615 nm). The results were graphed to calculate the EC50.
Titration of ATP at the EC50 concentration of kinase to determine ATP Km, app. was performed using the following method. After making serial dilutions of ATP (Invitrogen), 5 μl of ATP dilution and 5 μl substrate/kinase mix were added to the wells of the white Optiplate-384 (PerkinElmer). The contents of the plate were and incubated at RT for 1 h. The reaction was stopped by adding 5 μl of stop solution to each test well followed by mixing and incubation at RT for 10 minutes. 5 μl of detection mix (detection antibody diluted in detection buffer) was added; the contents of the plate were mixed and then incubated in the dark for 1 hour at RT. The signal was recorded at TR-FRET mode (665 nm/615 nm). The results were graphed to calculate the EC50 as the ATP Km,app.
Compound screening was done via the following method. 10 mM stock solution of test compound in DMSO was prepared by dissolving test compound in DMSO at RT for 1 hour, and then sonicating at 100% output for 8 minutes. If compound is not soluble under this condition, it was diluted to 3 mM. Kinase reaction buffer was prepared containing 10 mM MgCl2, 50 mM HEPES, 1 mM EGTA, 0.01% TWEEN-20, 2 mM DTT. Serial dilutions of the test compounds were prepared at 4× final assay concentrations using Freedom EVO200® dispensing system as follows: 12×10^−5 M, 4×10^−5M, 1.33×10^−5M, 4.44×10^−6M, 1.48×10^−6M, 4.92×10^−7M, 1.65×10^−7M, 5.48×10^−7 M, 1.82×10^−8 M, 6.09×10^−9, 2.03×10^−9 M. Test compounds (2.5 μl at 4× the final assay concentration) was added to wells using Freedom EVO200® dispensing system. As a positive control, 2.5 μl of positive compound was added to assay wells, and 2.5 μl of DMSO to assay wells as vehicle control. Kinase solution was prepared in reaction buffer at 2× final assay concentration. Kinase solution (5 μl) was added to each well of the assay plate. The substrate and ATP solution was prepared in kinase reaction buffer at 4× final assay concentration. The kinase reaction was started by adding 2.5 μl of substrate+ATP mix solution to each well of the assay plate. The plate is mixed on a plate shaker; then covered and allowed to react for 2 hours in the dark at 25° C. without shaking. The reaction was stopped by adding 5 μl of stop solution to each test well followed by mixing and incubation at RT for 10 minutes in the dark. 5 μl of detection mix (detection antibody diluted in detection buffer) was added; the contents of the plate were mixed and then incubated in the dark for 1 hour at RT. The signal was recorded at TR-FRET mode (665 nm/615 nm).
A general note: TR-FRET usually uses a lanthanide donor and a delayed reading to cut background.
What is called IC50 is the point on the concentration scale where inhibition reaches its midpoint. As to `O=C(O)c1ccc2nc(-c3ccc(F)cc3)c(N3CCCc4ccc(F)cc43)nc2c1` [Example 23, 3-(7-Fluoro-1,2,3,4-tetrahydroquinolin-1-yl)-2-(4-fluorophenyl)quinoxaline-6-carboxylic acid], the IC50 is at most 10 µM.

As for `O=C(O)c1ccc2nc(-c3ccc(F)cc3)c(N3CCCc4cc(C(=O)N5CCOCC5)ccc43)nc2c1` [Example 15, 2-(4-Fluorophenyl)-3-[6-[(morpholin-4-yl)carbonyl]-1,2,3,4-tetrahydroquinolin-1-yl]quinoxaline-6-carboxylic acid], the IC50 is at most 10 µM. On to `O=C(O)c1ccc2nc(-c3ccc(F)cc3)c(N3CCCc4ccccc43)nc2c1` [Example 1, 3-(1,2,3,4-Tetrahydroquinolin-1(2H)-yl)-2-(4-fluorophenyl)quinoxaline-6-carboxylic acid], for which the IC50 was at most 10 µM. With `O=C(O)c1ccc2nc(-c3ccc(F)cc3)c(N3CCCc4cc5c(cc43)OCO5)nc2c1` [Example 24, 3-[2H,5H,6H,7H,8H-[1,3]Dioxolo[4,5-g]quinolin-5-yl]-2-(4-fluorophenyl)quinoxaline-6-carboxylic acid], the IC50 was at most 10 µM.

As to `Cc1cc2cc(-c3nc4ccc(C(=O)O)cc4nc3N3CCCc4cc(F)ccc43)ccc2[nH]1` [Example 20, 3-(6-Fluoro-1,2,3,4-tetrahydroquinolin-1-yl)-2-(2-methyl-1H-indol-5-yl)quinoxaline-6-carboxylic acid], the IC50 is at most 10 µM. With `O=C(O)c1ccc2nc(-c3ccc4c(c3)OCCO4)c(N3CCCc4ccccc43)nc2c1` [Example 4, 2-(2,3-Dihydro-1,4-benzodioxin-6-yl)-3-(1,2,3,4-tetrahydroquinolin-1-yl)quinoxaline-6-carboxylic acid], the IC50 is at most 10 µM. `O=C(O)c1ccc2nc(-c3ccc(F)cc3)c(N3CCCc4cc(F)ccc43)nc2c1` [Example 6, 3-(6-Fluoro-1,2,3,4-tetrahydroquinolin-1-yl)-2-(4-fluorophenyl)quinoxaline-6-carboxylic acid]: the IC50 was at most 10 µM.

On to `O=C(O)c1ccc2[nH]c(=O)c(N3CCCc4ccccc43)nc2c1` [Example 10, 2-Oxo-3-(1,2,3,4-tetrahydroquinolin-1-yl)-1,2-dihydroquinoxaline-6-carboxylic acid], for which the half-inhibitory concentration (IC50) was over 10 µM. With `O=C(O)c1ccc2nc(-c3cc4cc(F)ccc4o3)c(N3CCCc4ccccc43)nc2c1` [Example 3, 3-(1,2,3,4-Tetrahydroquinolin-1(2H)-yl)-2-(5-fluorobenzofuran-2-yl)quinoxaline-6-carboxylic acid], the IC50 was at most 10 µM.

Take `COc1ccc2c(c1)CCCN2c1nc2cc(C(=O)O)ccc2nc1-c1cc2cc(F)ccc2o1` [Example 7, 2-(5-Fluoro-1-benzofuran-2-yl)-3-(6-methoxy-1,2,3,4-tetrahydroquinolin-1-yl)quinoxaline-6-carboxylic acid]: the IC50 is at most 10 µM. With `COc1ccc2c(c1)CCCN2c1nc2cc(C(=O)O)ccc2nc1-c1ccc(F)cc1` [Example 5, 2-(4-Fluorophenyl)-3-(6-methoxy-1,2,3,4-tetrahydroquinolin-1-yl)quinoxaline-6-carboxylic acid] the figure was at most 10 µM; with `O=C(O)c1ccc2nc(-c3cc4cc(Cl)ccc4o3)c(N3CCCc4cc(F)ccc43)nc2c1` [Example 8, 2-(5-Chloro-1-benzofuran-2-yl)-3-(6-fluoro-1,2,3,4-tetrahydroquinolin-1-yl)quinoxaline-6-carboxylic acid], at most 10 µM.

As for `O=C(O)c1ccc2nc(-c3ccc(F)cc3)c(N3CCCc4cc(Cl)ccc43)nc2c1` [Example 18, 3-(6-Chloro-1,2,3,4-tetrahydroquinolin-1-yl)-2-(4-fluorophenyl)quinoxaline-6-carboxylic acid], the IC50 was at most 10 µM. As for `CN(C)S(=O)(=O)c1ccc2c(c1)CCCN2c1nc2cc(C(=O)O)ccc2nc1-c1ccc(F)cc1` [Example 16, 3-[6-(Dimethylsulfamoyl)-1,2,3,4-tetrahydroquinolin-1-yl]-2-(4-fluorophenyl)quinoxaline-6-carboxylic acid], the IC50 is at most 10 µM. Under `N#Cc1ccc2c(c1)CCCN2c1nc2cc(C(=O)O)ccc2nc1-c1ccc(F)cc1` [Example 12, 3-(6-Cyano-1,2,3,4-tetrahydroquinolin-1-yl)-2-(4-fluorophenyl)quinoxaline-6-carboxylic acid] stands at most 10 µM; under `O=C(O)c1ccc2nc(-c3ccc(F)cc3)c(N3CCCc4cc(Br)ccc43)nc2c1` [Example 13], at most 10 µM. In the case of `O=C(O)c1ccc2nc(-c3ccc4[nH]ncc4c3)c(N3CCCc4cc(F)ccc43)nc2c1` [Example 21, 3-(6-Fluoro-1,2,3,4-tetrahydroquinolin-1-yl)-2-(1H-indazol-5-yl)quinoxaline-6-carboxylic acid], the IC50 is at most 10 µM. For `O=C(O)c1ccc2nc(-c3cc4ccccc4o3)c(N3CCCc4ccccc43)nc2c1` [Example 2, 2-(Benzofuran-2-yl)-3-(1,2,3,4-tetrahydroquinolin-1(2H)-yl)quinoxaline-6-carboxylic acid], the IC50 was at most 10 µM. On to `CN(C)c1ccc2c(c1)CCCN2c1nc2cc(C(=O)O)ccc2nc1-c1ccc(F)cc1` [Example 17, 3-[6-(Dimethylamino)-1,2,3,4-tetrahydroquinolin-1-yl]-2-(4-fluorophenyl)quinoxaline-6-carboxylic acid], for which the IC50 was at most 10 µM. With `COc1ccc2c(c1)CCCN2c1nc2cc(C(=O)O)ccc2nc1-c1cc2cc(Cl)ccc2o1` [Example 9, 2-(5-Chloro-1-benzofuran-2-yl)-3-(6-methoxy-1,2,3,4-tetrahydroquinolin-1-yl)quinoxaline-6-carboxylic acid] the figure was at most 10 µM. `O=C(O)c1ccc2nc(-c3ccc(F)cc3)c(N3CCCc4c(F)cccc43)nc2c1` [Example 19]: the IC50 was at most 10 µM. As to `NC(=O)c1ccc2c(c1)CCCN2c1nc2cc(C(=O)O)ccc2nc1-c1ccc(F)cc1` [Example 14, 3-(6-Carbamoyl-1,2,3,4-tetrahydroquinolin-1-yl)-2-(4-fluorophenyl)quinoxaline-6-carboxylic acid], the IC50 is at most 10 µM. For the molecule `COc1ccc2c(c1)N(c1nc3cc(C(=O)O)ccc3nc1-c1ccc(F)cc1)CCC2` [Example 22, 2-(4-Fluorophenyl)-3-(7-methoxy-1,2,3,4-tetrahydroquinolin-1-yl)quinoxaline-6-carboxylic acid], the IC50 is at most 10 µM.
